Assay results from patent US5494933A, “Treatment” (Beecham-Wuelfing GmbH & Co. KG, priority 1986, dated 1996).

Assays:
[1] = system: heart rate, systolic left ventricular pressure, left ventricular dp/dt max and mean arterial blood pressure; assay: Haemodynamic profile in anaesthetized rats; format: in vivo, rat; details: for % effect of Dhr 20 on dp/dtmax: left ventricular
Source text: 2. Haemodynamic profile in anaesthetized rats.
The effect of compounds of the invention on heart rate, systolic left ventricular pressure, left ventricular dp/dt max and mean arterial blood pressure was investigated so as to obtain information on the anti-anginal potential of these compounds, by reducing the oxygen demand of the ischaemic heart.
**LVP = systolic left ventricular pressure
***BP = mean arterial blood pressure
^a = i.d. administration

[2] = biological target: T1, coronary artery (Sus scrofa, UniProt A0A8W4FNC0); assay: Pig isolated coronary artery, Ca++-antagonistic activity
T1 construct: Coronary artery spirals were prepared; from tissue; host or cells: pig coronary artery spirals
Description: b) Pig isolated coronary artery
Coronary artery spirals were prepared and in lengths from 1.5 to 2 cm were incubated at 32.5° in Ca^++ -free Krebs-Henseleit solution containing tris buffer and 60 mM KCl. Ca^++ in concentrations ranging from 0.1 mM-7 mM was given every 10 min to produce a control dose-responsecurve. Following a wash out circle using EDTA, either placebo or drug was administered, and an equilibration time of 30 minutes allowed before the second dose-response curve was made. Dose-ratios were calculated at ED50 -levels, from these the log KB was calculated.

[3] = system: coronary spasm; assay: Vasopressin test in anaesthetized rats (coronary vasodilating activity, coronary spasm); format: in vivo, rat; details: 0.6 g/kg i.d., vasopressin (Lysopressin) 1 I.U./kg i.v.
Description: 1. Coronary Vasodilating activity
a) Vasopressin test in anaesthetized rats
Vasopressin (Lysopressin: 1 I.U./kg) was administered intravenously in order to provoke coronary spasm (ST-segment elevation in the ECG).
The ability of test compounds to reduce coronary spasm is taken as a measure of their anti-anginal potential in spasm-induced angina pectoris. (Ref. Drug.Res. 33(11), 8,1117-1121 (1983)).

[4] = anaesthetized rat, i.v., at Dhr 20

T1 sequence (A0A8W4FNC0 1-2067): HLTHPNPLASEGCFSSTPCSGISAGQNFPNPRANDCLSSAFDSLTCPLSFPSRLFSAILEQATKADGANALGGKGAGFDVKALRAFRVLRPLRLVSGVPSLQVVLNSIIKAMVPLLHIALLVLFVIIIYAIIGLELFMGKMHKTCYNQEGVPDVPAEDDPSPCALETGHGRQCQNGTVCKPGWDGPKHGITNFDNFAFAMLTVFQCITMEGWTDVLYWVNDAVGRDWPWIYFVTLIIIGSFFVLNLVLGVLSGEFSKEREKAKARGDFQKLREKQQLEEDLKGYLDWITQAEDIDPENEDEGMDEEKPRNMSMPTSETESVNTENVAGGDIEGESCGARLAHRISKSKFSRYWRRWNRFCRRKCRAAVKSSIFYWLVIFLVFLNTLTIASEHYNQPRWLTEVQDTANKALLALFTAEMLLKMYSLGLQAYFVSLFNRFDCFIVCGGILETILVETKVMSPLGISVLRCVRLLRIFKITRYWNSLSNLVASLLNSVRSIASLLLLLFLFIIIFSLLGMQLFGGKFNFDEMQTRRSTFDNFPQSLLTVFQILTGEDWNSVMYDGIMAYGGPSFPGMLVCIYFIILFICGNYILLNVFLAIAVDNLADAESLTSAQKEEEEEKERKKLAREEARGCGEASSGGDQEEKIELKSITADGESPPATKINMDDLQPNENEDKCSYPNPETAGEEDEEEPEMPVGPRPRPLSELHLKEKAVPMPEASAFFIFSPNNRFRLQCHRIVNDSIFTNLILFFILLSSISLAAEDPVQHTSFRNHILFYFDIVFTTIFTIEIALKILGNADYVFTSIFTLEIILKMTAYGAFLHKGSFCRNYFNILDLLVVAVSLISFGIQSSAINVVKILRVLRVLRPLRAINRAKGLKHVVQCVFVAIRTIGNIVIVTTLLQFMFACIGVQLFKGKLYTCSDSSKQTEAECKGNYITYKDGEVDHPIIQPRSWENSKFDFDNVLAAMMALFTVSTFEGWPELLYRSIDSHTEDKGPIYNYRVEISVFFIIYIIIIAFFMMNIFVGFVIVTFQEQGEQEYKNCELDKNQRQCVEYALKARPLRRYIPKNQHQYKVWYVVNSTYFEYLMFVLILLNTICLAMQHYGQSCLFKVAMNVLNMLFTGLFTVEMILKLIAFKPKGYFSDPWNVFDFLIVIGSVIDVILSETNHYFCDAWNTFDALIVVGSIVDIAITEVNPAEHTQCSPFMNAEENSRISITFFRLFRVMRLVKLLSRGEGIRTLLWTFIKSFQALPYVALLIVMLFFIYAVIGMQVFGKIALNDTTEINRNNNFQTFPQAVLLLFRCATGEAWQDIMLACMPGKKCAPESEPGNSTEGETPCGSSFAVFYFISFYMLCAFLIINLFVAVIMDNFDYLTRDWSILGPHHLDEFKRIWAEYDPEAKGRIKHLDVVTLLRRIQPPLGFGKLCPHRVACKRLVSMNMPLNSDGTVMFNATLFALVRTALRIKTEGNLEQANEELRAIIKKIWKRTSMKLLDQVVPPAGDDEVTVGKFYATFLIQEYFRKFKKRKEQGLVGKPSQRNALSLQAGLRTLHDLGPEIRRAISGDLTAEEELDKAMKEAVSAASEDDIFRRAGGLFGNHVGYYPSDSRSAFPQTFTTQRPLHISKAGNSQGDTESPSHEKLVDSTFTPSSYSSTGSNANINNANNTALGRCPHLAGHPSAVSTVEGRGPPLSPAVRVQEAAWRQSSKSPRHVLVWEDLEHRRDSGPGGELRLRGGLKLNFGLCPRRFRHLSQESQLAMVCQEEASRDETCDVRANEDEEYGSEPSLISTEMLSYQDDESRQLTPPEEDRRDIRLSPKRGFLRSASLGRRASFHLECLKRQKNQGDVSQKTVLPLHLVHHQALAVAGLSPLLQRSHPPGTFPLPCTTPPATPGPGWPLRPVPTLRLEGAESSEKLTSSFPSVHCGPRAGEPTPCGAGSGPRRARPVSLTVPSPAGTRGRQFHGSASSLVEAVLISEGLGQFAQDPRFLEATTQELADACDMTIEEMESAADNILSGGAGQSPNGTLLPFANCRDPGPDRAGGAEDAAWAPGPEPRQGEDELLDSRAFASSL

Structure (SMILES)	i.v. duration of action on heart rate ([1]; anaesthetized rat, i.v.)	% effect of Dhr 20 on dp/dtmax [1, 4]	other results
COc1ccc(CCN(C)CCCN(C(=O)Oc2ccccc2)c2ccc(OC)c(OC)c2)cc1OC [Example E25, (N-[3,4-Dimethoxyphenyl]-N-3-[N'-2-(3,4-dimethoxyphenyl)-ethyl-N'-methylamino]-propyl)-phenyl-urethane]	10 min	-2%	Dhr 20 (i.v. dose which reduces heart rate by ca. 20%) ([1]; anaesthetized rat, i.v.): 0.8; % effect of Dhr 20 on BP (mean arterial blood pressure) [1, 4]: -14%; % effect of Dhr 20 on LVP (systolic left ventricular pressure) [1, 4]: -10%
COc1ccc(CCN(C)CCCN(C(=O)c2ccc([N+](=O)[O-])cc2)c2ccc(OC)c(OC)c2)cc1OC [Example E50, (N-[3,4-Dimethoxyphenyl]-N-3-[N'-2-(3,4-dimethoxyphenyl)-ethyl-N'-methyl-amino]-propyl)-4-nitrobenzamide]			% effect of Dhr 20 on BP (mean arterial blood pressure) ([1]; rat, in vivo): -6%; duration of action on heart rate ([1]; rat, in vivo): > 90 min; % effect of Dhr 20 on BP (mean arterial blood pressure) ([1]; rat, in vivo, iv): -1%; % effect of Dhr 20 on LVP (systolic left ventricular pressure) ([1]; rat, in vivo, iv): -1%
CCCNC(=O)N(CCCN(C)CCc1ccc(OC)c(OC)c1)c1ccc(OC)c(OC)c1 [Example E27, (N-[3,4-Dimethoxyphenyl]-N-3-[N'-2-(3,4-dimethoxyphenyl)-ethyl-N'-methylamino]-propyl)-N"-n-propyl-urea]	5 to 10 min	-1%	
COc1ccc(CCN(C)CCCN(C(=O)NCc2ccccc2)c2ccc(OC)c(OC)c2)cc1OC [Example E30, (N-[3,4-Dimethoxyphenyl]-N-3-[N'-2-(3,4-dimethoxyphenyl)-ethyl-N'-methylamino]-propyl)-N"-benzylurea]	10 min	-20%	
COc1ccc(CCN(C)CCCN(Cc2ccc([N+](=O)[O-])cc2)c2ccc(OC)c(OC)c2)cc1OC [Example E6, (N-[3,4-Dimethoxyphenyl]-N-3-[N'-2-(3,4-dimethoxyphenyl)-ethyl-N'-methylamino]-propyl)-(4-nitro)-benzylamine]	60 min	-5%	
COc1ccc(CCN(C)CCCN(c2ccc(OC)c(OC)c2)c2ncc([N+](=O)[O-])cc2[N+](=O)[O-])cc1OC [Example E44, (N-[3,4-Dimethoxyphenyl]-N-3-[N'-2-(3,4-dimethoxyphenyl)-ethyl-N'-methyl-amino]-propyl)-3,5-dinitro-2-amino-pyridine]	10 min	-8%	Dhr 20 (i.v. dose which reduces heart rate by ca. 20%) ([1]; anaesthetized rat, i.v.): 3.2; % effect of Dhr 20 on BP (mean arterial blood pressure) [1, 4]: -10%; % effect of Dhr 20 on LVP (systolic left ventricular pressure) [1, 4]: -6%
CCCCC(=O)N(CCCN(C)CCc1ccc(OC)c(OC)c1)c1ccc(OC)c(OC)c1 [Example E12, (N-[3,4-Dimethoxyphenyl]-N-3-[N'-2-(3,4-dimethoxyphenyl)-ethyl-N'-methylamino]-propyl)-pentanoic acid amide]	10 min	-6%	
CCCCCN(CCCN(C)CCc1ccc(OC)c(OC)c1)c1ccc(OC)c(OC)c1 [Example E34, (N-[3,4-Dimethoxyphenyl]-N-3-[N'-2-(3,4-dimethoxyphenyl)-ethyl-N'-methylamino]-propyl)-n-pentylamine]	5 to 10 min	-10%	
CCCCOC(=O)N(CCCN(C)CCc1ccc(OC)c(OC)c1)c1ccc(OC)c(OC)c1 [Example E24, (N-[3,4-Dimethoxyphenyl]-N-3-[N'-2-(3,4-dimethoxyphenyl)-ethyl-N'methylamino]-propyl)-n-butyl-urethane]	10 min	-8%	
COc1ccc(CCN(C)CCN(C(=O)NC(C)c2ccccc2)c2ccc(OC)c(OC)c2)cc1OC (stereo not shown) [Example E32]	10 min	-3%	
COc1ccc(CCN(C)CCCN(Cc2ccccc2)c2ccc(OC)c(OC)c2)cc1OC [Example E4, (N-[3,4-Dimethoxyphenyl]-N-3-[N'-2-(3,4-dimethoxyphenyl)-ethyl-N'-methylamino]-propyl)-benzylamine]	10 min	-12%	Kb ([2]; pig coronary artery spirals, 60 mM KCl, Ca++ 0.1 mM-7 mM, 30 min equilibration, dose-ratios at ED50 levels): 1410 nM; Ca++-antagonistic activity in coronary artery in vitro ([2]; pig coronary artery, from log KB): moderate to medium
COc1ccc(CCN(C)CCCN(C(=O)CCc2ccccc2)c2ccc(OC)c(OC)c2)cc1OC [Example E15, (N-[3,4-Dimethoxyphenyl]-N-3-[N'-2-(3,4-dimethoxyphenyl)-ethyl-N'-methylamino]-propyl)-(3-phenyl)propanoic acid amide]	10 min	-7%	
COc1ccc(CCN(C)CCCN(Cc2ccccc2[N+](=O)[O-])c2ccc(OC)c(OC)c2)cc1OC [Example E1, (N-[3,4-Dimethoxyphenyl]-N-3-[N'-2-(3,4-dimethoxyphenyl)-ethyl-N'-methylamino]-propyl)-(2-nitro)-benzylamine]	10 min	-3%	activity against coronary spasm (ST-segment elevation in the ECG) [3]: active against coronary spasm
